Patent US11866430B2, “Naphthyridinone compounds useful as T cell activators” (priority 2018, dated 2024)

What was measured:
[1] = biological target: T1, human DGKα (Homo sapiens (Human), UniProt P23743); test: DGKα LIPGLO assay (extruded liposome substrate); format: biochemical
Method: The DGKα and DGKζ reactions were performed using either extruded liposome (DGKα and DGKζ LIPGLO assays) or detergent/lipid micelle substrate (DGKα and DGKζ assays). The reactions were carried out in 50 mM MOPS pH 7.5, 100 mM NaCl, 10 mM MgCl2, 1 μM CaCl2, and 1 mM DTT (assay buffer). The reactions using a detergent/lipid micelle substrate also contained 50 mM octyl B-D-glucopyranoside. […] The lipid substrate concentrations were […], 0.25 mM DAG, and 2.75 mM PC for the extruded liposome reactions.
(§1) The compound inhibition studies were carried out as follows: 50 nL droplets of each test compound (top concentration 10 mM with 11 point, 3-fold dilution series for each compound) solubilized in DMSO were transferred to wells of a white 1536 well plate (Corning 3725). A 5 mL enzyme/substrate solution at 2× final reaction concentration was prepared by combining 2.5 mL 4× enzyme solution (20 nM DGKα or DGKζ (prepared as described below) in assay buffer) and 2.5 mL of either 4× liposome or 4× detergent/lipid micelle solution (compositions described below) and incubated at room temperature for 10 minutes. Next, 1 μL 2× enzyme/substrate solution was added to wells containing the test compound and reactions were initiated with the addition of 1 μL 300 uM ATP. The reactions were allowed to proceed for 1 hr, after which 2 μL Glo Reagent (Promega V9101) was added and incubated for 40 minutes. Next, 4 μL Kinase Detection Reagent was added and incubated for 30 minutes. Luminescence was recorded using an EnVision microplate reader. […] The compounds were evaluated at 11 concentrations to determine IC50.
(§2) The PC, DAG, and PS were dissolved in chloroform, combined, and dried in vacuo to a thin film. The lipids were hydrated to 20 mM in 50 mM MOPS pH 7.5, 100 mM NaCl, 5 mM MgCl2, and were freeze-thawed five times. The lipid suspension was extruded through a 100 nm polycarbonate filter eleven times. […] The liposome preparation was stored at 4° C. for as long as four weeks.
Human DGK-alpha-TVMV-His-pFBgate and human DCK-zeta-transcript variant-2-TVMV-His-pFBgate baculovirus samples were generated using the Bac-to-Bac baculovirus expression system (Invitrogen) according to the manufacturer's protocol. The DNA used for expression of DGK-alpha and DGK-zeta have SEQ ID NOs: 1 and 3, respectively. Baculovirus amplification was achieved using infected Sf9 cells at 1:1500 virus/cell ratios, and grown for 65 hours at 27° C. post-transfection.
(§3) The expression scale up for each protein was carried out in the Cellbag 50 L WAVE-Bioreactor System 20/50 from GE Healthcare Bioscience. 12 L of 2×10^6 cells/mL Sf9 cells (Expression System, Davis, Calif.) grown in ESF921 insect medium (Expression System) were infected with virus stock at 1:200 virus/cell ratios, and grown for 66-68 hours at 27° C. post-infection. The infected cell culture was harvested by centrifugation at 2000 rpm for 20 min 4° C. in a SORVALL® RC12BP centrifuge. The cell pellets were stored at −70° C. until purification.
Full length human DGKα and DGKζ, each expressed containing a TVMV-cleavable C-terminal Hexa-His tag sequence (SEQ ID NOs: 2 and 4, respectively) and produced as described above, were purified from Sf) baculovirus-infected insect cell paste. The cells were lysed using nitrogen cavitation method with a nitrogen bomb (Parr Instruments), and the lysates were clarified by centrifugation. […] The three steps column chromatography included nickel affinity resin capture (i.e. HisTrap FF crude, GE Healthcare), followed by size exclusion chromatography (i.e. HiLoad 26/600 Superdex 200 prep grade, GE Healthcare for DGK-alpha, and HiPrep 26/600 Sephacryl S 300_HR, GE Healthcare for DGK-zeta). The third step was ion exchange chromatography, and differed for the two isoforms.

[2] = biological target: T2, human DGKζ (Homo sapiens (Human), UniProt Q13574); test: DGKζ LIPGLO assay (extruded liposome substrate); format: biochemical
T2 sequence (Q13574 other isoform, or with tags, fused parts or gaps): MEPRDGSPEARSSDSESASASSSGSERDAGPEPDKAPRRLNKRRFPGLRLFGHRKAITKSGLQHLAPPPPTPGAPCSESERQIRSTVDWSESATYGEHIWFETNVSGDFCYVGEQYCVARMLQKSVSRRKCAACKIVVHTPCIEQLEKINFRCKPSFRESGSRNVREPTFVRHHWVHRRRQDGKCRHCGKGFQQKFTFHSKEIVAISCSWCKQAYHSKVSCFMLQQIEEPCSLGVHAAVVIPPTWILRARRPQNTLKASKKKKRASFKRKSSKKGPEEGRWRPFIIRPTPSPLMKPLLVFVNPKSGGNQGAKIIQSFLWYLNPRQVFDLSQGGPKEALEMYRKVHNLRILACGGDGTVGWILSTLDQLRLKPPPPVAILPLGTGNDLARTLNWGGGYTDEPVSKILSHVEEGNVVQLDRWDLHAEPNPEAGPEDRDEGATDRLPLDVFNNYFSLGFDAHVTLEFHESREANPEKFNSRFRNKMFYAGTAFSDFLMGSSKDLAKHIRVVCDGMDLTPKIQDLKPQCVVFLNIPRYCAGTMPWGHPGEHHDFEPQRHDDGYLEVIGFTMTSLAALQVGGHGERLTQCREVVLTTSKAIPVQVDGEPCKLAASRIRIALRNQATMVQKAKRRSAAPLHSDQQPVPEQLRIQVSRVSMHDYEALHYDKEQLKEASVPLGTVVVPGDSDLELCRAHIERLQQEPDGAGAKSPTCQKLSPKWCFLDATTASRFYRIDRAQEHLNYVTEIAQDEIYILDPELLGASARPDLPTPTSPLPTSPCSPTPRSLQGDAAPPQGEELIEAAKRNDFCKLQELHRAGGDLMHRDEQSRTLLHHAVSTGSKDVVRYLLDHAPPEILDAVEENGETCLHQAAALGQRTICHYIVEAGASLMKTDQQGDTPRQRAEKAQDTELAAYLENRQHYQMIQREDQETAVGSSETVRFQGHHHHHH
Method: The DGKα and DGKζ reactions were performed using either extruded liposome (DGKα and DGKζ LIPGLO assays) or detergent/lipid micelle substrate (DGKα and DGKζ assays). The reactions were carried out in 50 mM MOPS pH 7.5, 100 mM NaCl, 10 mM MgCl2, 1 μM CaCl2, and 1 mM DTT (assay buffer). The reactions using a detergent/lipid micelle substrate also contained 50 mM octyl B-D-glucopyranoside.
as §1, with “A” for “The compound inhibition studies were carried out as follows: 50 nL droplets of each test compound (top concentration 10 mM with 11 point, 3-fold dilution series for each compound) solubilized in DMSO were transferred to wells of a white 1536 well plate (Corning 3725). A”
as §2
Baculovirus amplification was achieved using infected Sf9 cells at 1:1500 virus/cell ratios, and grown for 65 hours at 27° C. post-transfection.
as §3
The cells were lysed using nitrogen cavitation method with a nitrogen bomb (Parr Instruments), and the lysates were clarified by centrifugation. […] The three steps column chromatography included nickel affinity resin capture (i.e. HisTrap FF crude, GE Healthcare), followed by size exclusion chromatography (i.e. HiLoad 26/600 Superdex 200 prep grade, GE Healthcare for DGK-alpha, and HiPrep 26/600 Sephacryl S 300_HR, GE Healthcare for DGK-zeta). The third step was ion exchange chromatography, and differed for the two isoforms. DGKα was polished using Q-Sepharose anion exchange chromatography (GE Healthcare). DGKζ was polished using SP Sepharose cation exchange chromatography (GE Healthcare). The proteins were delivered at concentrations of ≥2 mg/mL. The formulation buffers were identical for both proteins: 50 mM Hepes, pH 7.2, 500 mM NaCl, 10% v/v glycerol, 1 mM TCEP, and 0.5 mM EDTA.

[3] = tested on: pre-activated CD4 T cells and Raji cells; test: Raji CD4 T Cell IL2 Assay; format: cell-based; settings: Homo sapiens, Raji
[4] = biological target: T2, human DGKζ; test: DGKζ assay (detergent/lipid micelle substrate); format: biochemical
Procedure, shortened: (§4)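 Full-length human DGKα or DGKζ (C-terminal His tag, Sf9-expressed; 20 nM 4× stock) was preincubated 10 min at room temperature with PS/DAG octyl glucoside micelles in MOPS pH 7.5 buffer with MgCl2, CaCl2 and DTT. It was then started with ATP (300 uM addition) and run for 1 hr, with ADP-Glo luminescence read-out.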

[5] = biological target: T1, human DGKα; test: biochemical; settings: detergent/lipid micelle substrate; read-out: DGKα IC50
Procedure, shortened: as §4

[6] = extruded liposome substrate, read-out: DGKζ LIPGLO IC50
[7] = detergent/lipid micelle substrate, read-out: DGKζ IC50

T1 sequence (P23743 other isoform, or with tags, fused parts or gaps): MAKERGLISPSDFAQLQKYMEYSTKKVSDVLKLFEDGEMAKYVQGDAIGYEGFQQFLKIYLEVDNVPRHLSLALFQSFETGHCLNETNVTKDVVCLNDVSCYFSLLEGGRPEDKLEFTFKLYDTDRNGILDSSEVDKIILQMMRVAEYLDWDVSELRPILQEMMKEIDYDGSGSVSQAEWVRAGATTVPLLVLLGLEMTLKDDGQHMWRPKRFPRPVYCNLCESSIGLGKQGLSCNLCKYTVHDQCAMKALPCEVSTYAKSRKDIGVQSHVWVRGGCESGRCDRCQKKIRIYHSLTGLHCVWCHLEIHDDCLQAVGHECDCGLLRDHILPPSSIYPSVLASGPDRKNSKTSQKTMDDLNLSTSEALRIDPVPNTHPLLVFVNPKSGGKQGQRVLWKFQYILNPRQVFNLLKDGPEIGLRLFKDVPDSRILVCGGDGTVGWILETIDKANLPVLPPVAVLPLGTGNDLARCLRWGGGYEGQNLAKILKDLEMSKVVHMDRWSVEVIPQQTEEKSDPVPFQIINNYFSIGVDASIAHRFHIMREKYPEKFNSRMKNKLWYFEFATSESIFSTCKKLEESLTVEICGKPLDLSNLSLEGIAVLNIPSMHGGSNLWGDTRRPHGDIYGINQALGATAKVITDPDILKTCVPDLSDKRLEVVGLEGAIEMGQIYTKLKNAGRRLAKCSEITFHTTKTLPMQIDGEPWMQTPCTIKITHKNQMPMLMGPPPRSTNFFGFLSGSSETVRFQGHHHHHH

SMILES | IC50 [1] [µM] | IC50 [2, 6] [µM] | IC50 [3] [µM] | IC50 [4, 7] [µM] | IC50 [5] [µM] | IC50 ([2]; DGKζ LIPGLO IC50, extruded liposome substrate) [µM] | IC50 ([4]; DGKζ IC50, detergent/lipid micelle substrate) [µM]
COc1ccc2c(n1)c(N1CCN(C(c3ccc(F)cc3)c3ccccc3O)CC1)c(C#N)c(=O)n2C (stereo not drawn) [Example 104, 4-(4-((4-fluorophenyl)(2-hydroxyphenyl)methyl)piperazin-1-yl)-6-methoxy-1-methyl-2-oxo-1,2-dihydro-1,5-naphthyridine-3-carbonitrile] | 0.74 | 0.78 | 0.44 | – | – | – | –
C=CCn1c(=O)c([N+](=O)[O-])c(N2CCN(C(c3ccccc3)c3ccccc3)CC2)c2ncccc21 [Example 176, 1-all-4-(4-benzhydrylpiperazin-1-yl)-3-nitro-1,5-naphthyridin-2(1H)-one] | > 240 | 27 | 3 | – | – | – | –
COc1ccc2c(n1)c(N1CCN(C(c3ccc(F)cc3)c3ccc(F)cc3)CC1)c(C#N)c(=O)n2C [Example 103, 4-(4-(bis(4-fluorophenyl)methyl)piperazin-1-yl)-6-methoxy-1-methyl-2-oxo-1,2-dihydro-1,5-naphthyridine-3-carbonitrile] | 6.1 | 0.99 | 0.4 | – | – | – | –
CCn1ccc2c(CN3CCN(c4c(C#N)c(=O)n(C)c5cccnc45)CC3)cccc21 [Example 334, 4-{4-[(1-ethyl-1H-indol-4-yl)methyl]piperazin-1-yl}-1-methyl-2-oxo-1,2-dihydro-1,5-naphthyridine-3-carbonitrile] | 1.7 | 27 | 0.54 | – | – | – | –
Cc1ccc(C(c2ccccc2)N2CCN(c3c(C#N)c(=O)n(C)c4ccc(Br)nc34)CC2)cc1 (stereo not drawn) [Example 431, 6-bromo-1-methyl-4-{4-[(4-methylphenyl)(phenyl)methyl]piperazin-1-yl}-2-oxo-1,2-dihydro-1,5-naphthyridine-3-carbonitrile] | 9 | 9 | – | – | – | – | –
Cn1c(=O)c([N+](=O)[O-])c(N2CCN(Cc3cccc4ccccc34)CC2)c2nc(Br)ccc21 [Example 55, 6-bromo-1-methyl-4-(4-(naphthalen-1-ylmethyl)piperazin-1-yl)-3-nitro-1,5-naphthyridin-2(1H)-one] | 0.19 | 1.8 | 0.038 | – | – | – | –
Cc1ccc(C(c2ccccc2)N2CCN(c3c(C#N)c(=O)n(C)c4ccc(C#N)nc34)CC2)cc1 (stereo not drawn) [Example 408, 5-methyl-8-{4-[(4-methylphenyl)(phenyl)methyl]piperazin-1-yl}-6-oxo-5,6-dihydro-1,5-naphthyridine-2,7-dicarbonitrile] | 9 | 1.1 | – | – | – | – | –
Cn1c(=O)cc(N2CCN(C(c3ccc(F)cc3)c3ccc(F)cc3)CC2)c2ncccc21 [Example 426, 4-(4-(bis(4-fluorophenyl)methyl)piperazin-1-yl)-1-methyl-1,5-naphthyridin-2(1H)-one] | 170 | > 240 | 20 | – | – | – | –
Cn1c(=O)c(C#N)c(N2CCN(C(c3ccccc3)c3ccccc3O)CC2)c2ncccc21 (stereo not drawn) [Example 349, 4-{4-[(2-hydroxyphenyl)(phenyl)methyl]piperazin-1-yl}-1-methyl-2-oxo-1,2-dihydro-1,5-naphthyridine-3-carbonitrile] | 1.3 | 32 | 1.4 | – | – | – | –
Cc1ccc2c(n1)c(N1CCN(C(c3ccc(F)cc3)c3ccc(F)cc3)CC1)c(C(=O)C(F)(F)F)c(=O)n2C [Example 228, 4-(4-(bis(4-fluorophenyl)methyl)piperazin-1-yl)-1,6-dimethyl-3-(2,2,2-trifluoroacetyl)-1,5-naphthyridin-2(1H)-one] | > 240 | 9.7 | 0.11 | > 240 | – | – | –
COc1cc(F)ccc1C(c1ccc(F)cc1OC)N1CCN(c2c(C#N)c(=O)n(C)c3ccc(C#N)nc23)CC1 [Example 409, 8-{4-[bis(4-fluoro-2-methoxyphenyl)methyl]piperazin-1-yl}-5-methyl-6-oxo-5,6-dihydro-1,5-naphthyridine-2,7-dicarbonitrile] | > 240 | 0.95 | – | – | – | – | –
C#CCn1c(=O)c([N+](=O)[O-])c(N2CCN(C(c3ccccc3)c3ccccc3)CC2)c2ncccc21 [Example 165, 4-(4-benzhydrylpiperazin-1-yl)-3-nitro-1-(prop-2-yn-1-yl)-1,5-naphthyridin-2(1H)-one] | 2.8 | 4.1 | – | 92 | 3.4 | – | –
O=c1c([N+](=O)[O-])c(N2CCN(C(c3ccccc3)c3ccccc3)CC2)c2ncccc2n1CCC1OCCCO1 [Example 166, 1-(2-(1,3-dioxan-2-yl)ethyl)-4-(4-benzhydrylpiperazin-1-yl)-3-nitro-1,5-naphthyridin-2(1H)-one] | 210 | 230 | 3.8 | – | – | – | –
Cn1c(=O)c(C#N)c(N2CCN(C(c3ccccc3)c3ccccc3)CC2)c2nc(Cl)ccc21 [Example 358, 6-chloro-4-[4-(diphenylmethyl)piperazin-1-yl]-1-methyl-2-oxo-1,2-dihydro-1,5-naphthyridine-3-carbonitrile] | > 240 | > 240 | 6.5 | – | – | – | –
CC(c1ccc(F)cc1)N1CCN(c2c(C#N)c(=O)n(CC3CC3)c3ccc(Br)nc23)CC1 (single isomer, unassigned) [Example 163, 6-bromo-1-(cyclopropylmethyl)-4-(4-(1-(4-fluorophenyl)ethyl)piperazin-1-yl)-2-oxo-1,2-dihydro-1,5-naphthyridine-3-carbonitrile] | 110 | – | – | – | > 240 | 110 | > 240
